According to article PMC8389655, “Au2phen and Auoxo6, Two Dinuclear Oxo-Bridged Gold(III) Compounds, Induce Apoptotic Signaling in Human Ovarian A2780 Cancer Cells” (Biomedicines, 2021):

Assays:
[1] = system: intracellular ROS in A2780 cells; assay: Intracellular ROS evaluation (H2DCF-DA, flow cytometry); format: cell-based, human; settings: A2780, 48 h treatment at 72 h IC50 dose, H2DCFDA
Protocol: Within the cell, H2DCF-DA is de-acetylated by cellular esterases to a non-fluorescent compound, which becomes fluorescent once it is oxidized by cellular ROS into 2′,7′-dichlorofluorescein (DCF). Cells were trypsinized, washed, and incubated with 5 µM H2DCFDA for 30 min in the dark. Then, cells were washed again and immediately analyzed using a FACSCantoII (BD Biosciences, New Jersey, USA) flow cytometer.

[2] = system: lactate production of A2780 cells; assay: Lactate production assay (K-LATE kit) in culture medium; format: cell-based, human; settings: A2780, 24 h treatment at 72 h IC50 dose, vs controls
Protocol: The lactate amount was measured in cell culture media after 24 h of treatment with K-LATE kit (Megazyme, Bray, Ireland) according to the data sheet provided by the manufacturer. Lactate content was normalized on the protein content of the same sample.

OXPHOS complex I = assay: Western blot of OXPHOS complex I content; format: cell-based, human; settings: A2780, 24 h at 72 h IC50 dose, vs controls
Protocol: (§1) After drug treatments, cells were lysed in RIPA buffer supplemented with a cocktail of protease and phosphatase inhibitors. […] To favor the electrophoretic separation, 25% sample loading buffer (SLB) was added to the cell lysates. Here, 20 µg samples of proteins from controls and treated cells were loaded on 4–20% pre-cast SDS-PAGE gels and blotted onto PVDF membranes. Primary antibodies Bcl-2 (1:1000 dilution,#sc-7382, Santa Cruz, Dallas, Texas USA), Bax (1:1000 dilution, #sc-493, Santa Cruz), OXPHOS cocktail (1:1000 dilution, #ab110413, AbCam, Cambridge, UK), citrate synthase (1:1000 dilution, #sc-515640, Santa Cruz), ASK1 (1:1000 dilution, #sc-390275, Santa Cruz), phospho(Thr838)-ASK1 (1:1000 dilution, #CPA6042, Cohesion Biosciences, London, UK), AKT (1:1000 dilution, #sc-5298, Santa Cruz), and phospho(Ser473)-AKT (1:1000 dilution, #GTX128414, GeneTex, Irvine, CA, USA) were added to 2% non-fat dry milk in PBS-tween solution, while PVDF membranes were incubated overnight at 4 °C. Then, membranes were treated with horseradish peroxidase (HRP)-conjugated secondary antibodies (1:5000 dilution, Santa Cruz) and immunoreactive bands were detected with an ECL kit detection system on an Amersham Imager 600 (GE Healthcare, Chicago, IL, USA). For the quantification, a densitometric analysis of the bands was performed using ImageJ2 software version 2.0.0-rc-64 [23]. The intensities of the immunostained bands were normalized on the Coomassie brilliant blue R-250-stained total protein from the same PVDF membrane.

ASK1 = assay: Western blot of phospho(Thr838)-ASK1 and total ASK1; format: cell-based, human; settings: A2780, 24 h at 72 h IC50 dose, vs controls
Protocol: as §1

[3] = system: thioredoxin reductase (TrxR); settings: for effect on TrxR enzyme activity: A2780, 12 h treatment at 72 h IC50 dose; for inhibition of TrxR enzyme activity: A2780, 24 h treatment at 72 h IC50 dose, vs controls
Protocol: The total thioredoxin reductase (TrxR) activity was measured using a commercial colorimetric assay kit (#CS0170, Sigma Aldrich, St. Louis, MO, USA) based on the reduction of 5,5′-dithiobis (2-nitrobenzoic) acid (DTNB) with NADPH to 5-thio-2 nitrobenzoic acid (TNB) at 412 nm. This kit also contains an inhibitor solution of mammalian thioredoxin reductase. Since several enzymes present in the biological sample can reduce DTNB, the specific inhibitor is used to determine the reduction of DTNB due only to TrxR activity. […] Cells were lysed with RIPA buffer (50 mM Tris-HCl pH 7.0, 1% (v/v) NP-40, 150 mM NaCl, 2 mM ethylene glycol bis(2-aminoethyl ether)tetra-acetic acid, 100 mM NaF) supplemented with a cocktail of protease inhibitors. The protein concentrations in the cell lysates were determined by Bradford protein assay kit (Bio-Rad Laboratories, Hercules, USA) according to the manufacturer’s instructions and then 30 µg samples of proteins were used for the assay. Results were normalized to the cellular protein content.

caspase-8 = assay: FAM-FLICA caspase-8 activation, flow cytometry; format: cell-based, human; settings: A2780, 72 h at 72 h IC50 dose, compared to controls
Protocol: In addition, caspase-3, caspase-8, and caspase-9 activation was assessed in treated and untreated cells. Likewise, cells were trypsinized, washed with PBS, and suspended in FAM-FLICATM caspase solution (FAM-DEVD-FMK caspase FLICA kit, ImmunoChemistry Technologies, MN 55431 USA) for 30 min at 37 °C. Cells were then washed twice with PBS and analyzed using a FACSCantoII flow cytometer (BD Biosciences, New Jersey, USA).

[4] = system: complex I-driven mitochondrial respiration; assay: Respiratory control ratio, complex I-driven respiration in permeabilized cells; format: cell-based, human; settings: permeabilized A2780, 24 h treatment; control about 3.1
Protocol: (§2) The analysis of the oxygen consumption rate (OCR) was performed using a Clark-type O2 electrode inserted in a thermostated airtight chamber (Oxygraph Plus System, Hansatech Instruments, King’s Lynn, Norfolk, UK). Briefly, control and treated cells (12 and 24 h) were trypsinized, washed with PBS, and suspended in culture medium to measure the steady state OCR for 10 min. The OCR values, expressed as nmol of consumed O2/mL/min, were normalized to the cellular protein content. To evaluate the response of complex I, complex II/III, and ATP-synthase-driven OCRs in the presence or absence of gold-treatment, we used the protocol described by Baracca et al.. Cells were trypsinized, washed, and resuspended in buffer containing sucrose, TRIS-HCl, MgSO4, EDTA, and KH2PO4. Cell suspension was treated with digitonin to allow cell membrane permeabilization. To stimulate complex I, 250 mM glutamate/malate was added, whereas to stimulate complex II, 250 mM succinate was added (state 2 respiration). Then, to induce ATP-synthase-driven mitochondrial respiration, 10 mM ADP was added (state 3 respiration). To estimate the mitochondrial respiratory capacity, defined as the respiratory control ratio (RCR), state 3/state 2 ratios were calculated for control and treated cells.

[5] = system: complex II-driven mitochondrial respiration; assay: Respiratory control ratio, complex II-driven respiration in permeabilized cells; format: cell-based, human; settings: permeabilized A2780, 24 h treatment; control about 3.0
Protocol: as §2

OXPHOS complex II = assay: Western blot of OXPHOS complex II content; format: cell-based, human; settings: A2780, 24 h at 72 h IC50 dose, vs controls
Protocol: as §1

`Cc1ccc2ccc3ccc(C)[n+]4c3c2[n+]1[Au-]41[O][Au-]2([O]1)[n+]1c(C)ccc3ccc4ccc(C)[n+]2c4c31.F[P-](F)(F)(F)(F)F.F[P-](F)(F)(F)(F)F` [Au2phen, ((2,9-dimethyl-1,10-phenanthroline)2Au2(µ-O)2)(PF6)2] was tested, and the “ROS increase vs control cells” value [1] was “about 3.7 fold”, the “increase of lactate level in medium” value [2] was “about 20%” and the “decrease of complex I protein content” value (OXPHOS complex I) was 48%. For the same compound, the “enhancement of phospho-ASK1 levels (phosphorylated-ASK1/total ASK1 ratio)” value (ASK1) was “about 15%”, the “effect on TrxR enzyme activity” value [3] was “clear tendency to inhibit the TrxR activity, even if the changes were not statistically significant” and the “inhibition of TrxR enzyme activity” value [3] was ~ 26%. For the same compound, the “cells showing caspase-8 activation” value (caspase-8) was “around 50%”, the “respiratory control ratio (RCR), complex I-driven” value [4] was “about 1.8” and the “respiratory control ratio (RCR), complex II-driven” value [5] was “about 1.7”. The “decrease of complex II protein content” value (OXPHOS complex II) was 66%.
With `Cc1cccc2[n+]1[Au-]1([O][Au-]3([O]1)[n+]1c(C)cccc1-c1cccc(C)[n+]13)[n+]1c(C)cccc1-2.F[P-](F)(F)(F)(F)F.F[P-](F)(F)(F)(F)F` [Auoxo6, ((6,6′-dimethyl-2,2′-bipyridine)2Au2(µ-O)2)(PF6)2] the “ROS increase vs control cells” value [1] was “about 2.8 fold”, the “increase of lactate level in medium” value [2] was ~25% and the “decrease of complex I protein content” value (OXPHOS complex I) was 50%. For the same compound, the “enhancement of phospho-ASK1 levels (phosphorylated-ASK1/total ASK1 ratio)” value (ASK1) was “about 23%”, the “effect on TrxR enzyme activity” value [3] was “clear tendency to inhibit the TrxR activity, even if the changes were not statistically significant” and the “inhibition of TrxR enzyme activity” value [3] was “about 50%”. The “cells showing caspase-8 activation” value (caspase-8) was ~70%, the “respiratory control ratio (RCR), complex I-driven” value [4] was 2.1 and the “respiratory control ratio (RCR), complex II-driven” value [5] was “about 1.8”. The “decrease of complex II protein content” value (OXPHOS complex II) was 70%.
For `CCOC(=O)CN(C)C1=[S+][Au-]([Br])([Br])[S]1` [AuL12, dibromo(ethylsarcosinedithiocarbamate)gold(III), reference compound], the “ROS increase vs control cells” value [1] was “about 2.8 fold”, the “increase of lactate level in medium” value [2] was ~29% and the “decrease of complex I protein content” value (OXPHOS complex I) was 28%. The “enhancement of phospho-ASK1 levels (phosphorylated-ASK1/total ASK1 ratio)” value (ASK1) was “about 25%”, the “effect on TrxR enzyme activity” value [3] was “clear tendency to inhibit the TrxR activity, even if the changes were not statistically significant” and the “inhibition of TrxR enzyme activity” value [3] was “about 50%”. For the same compound, the “cells showing caspase-8 activation” value (caspase-8) was ~ 30%, the “respiratory control ratio (RCR), complex I-driven” value [4] was 2.3 and the “respiratory control ratio (RCR), complex II-driven” value [5] was “about 2.4”. For the same compound, the “decrease of complex II protein content” value (OXPHOS complex II) was 40%.
